The values that follow come from ChEMBL document CHEMBL1139215, “Discovery of aminofurazan-azabenzimidazoles as inhibitors of Rho-kinase with high kinase selectivity and antihypertensive activity” (J Med Chem, 2007).

pIC50: −log10 of the molar value. Some results are limits rather than exact numbers.

For data set [1], the species on record is Homo sapiens. The experiment in a line: Selectivity for ROCK1 over RSK1.
For another data set, the system named is Aorta. As to the kind of experiment: Relaxation of phenylephrine contracted Sprague-Dawley rat aortic rings. Format: functional, tissue-based.
Data set [2] is filed under the species Homo sapiens. As to the kind of experiment: Selectivity for ROCK1 over MSK1.
For data set [3], the species on record is Homo sapiens. The experiment in a line: Selectivity for ROCK1 over p70S6K.
Data set [4] addresses Rho-associated protein kinase 1 (Homo sapiens, UniProt Q13464). The experiment in a line: Inhibition of human ROCK1 in Sf9 cells. Format: cell-based.
Data set [5] in a line: Cmax in Sprague-Dawley rat at 1.1 mg/kg, iv. Type of data set: ADME, organism-based. As to conditions: in vivo. Also noted: dose 1.1 mg/kg, route intravenous.
Data set [6] in a line: Cmax in Sprague-Dawley rat at 2.2 mg/kg, po. Also noted: dose 2.2 mg/kg, route oral. As to conditions: in vivo. Format: ADME, organism-based.
Data set [7] is described as follows: Half life in Sprague-Dawley rat at 1.1 mg/kg, iv. Also noted: dose 1.1 mg/kg, route intravenous. Format: ADME, organism-based. As to conditions: in vivo.
Data set [8] can be described thus: Clearance in Sprague-Dawley rat at 1.1 mg/kg, iv. Type of data set: ADME, organism-based. Also noted: dose 1.1 mg/kg, route intravenous. As to conditions: in vivo.
Data set [9] in a line: Volume of distribution in Sprague-Dawley rat at 1.1 mg/kg, iv. Format: ADME, organism-based. Also noted: dose 1.1 mg/kg, route intravenous. As to conditions: in vivo, read-out: Vdss.
Data set [10] is described as follows: Oral bioavailability in Sprague-Dawley rat at 2.2 mg/kg, po. Type of data set: ADME, organism-based. As to conditions: in vivo.
For data set [11], the species on record is Homo sapiens. The experiment in a line: Selectivity for ROCK1 over GSK3-beta.
The species entered for data set [12] is Homo sapiens. As to the kind of experiment: Selectivity for ROCK1 over CDK2.
The nature of data set [13]: Cmax in Sprague-Dawley rat at 1 mg/kg, iv. As to conditions: in vivo. Also noted: dose 1 mg/kg, route intravenous. Type of data set: ADME, organism-based.
Data set [14] can be described thus: Half life in Sprague-Dawley rat at 1 mg/kg, iv. Set-up: dose 1 mg/kg, route intravenous. Format: ADME, organism-based. As to conditions: in vivo.
Data set [15] in a line: Clearance in Sprague-Dawley rat at 1 mg/kg, iv. Format: ADME, organism-based. Set-up: dose 1 mg/kg, route intravenous. As to conditions: in vivo.
Data set [16] can be described thus: Volume of distribution in Sprague-Dawley rat at 1 mg/kg, iv. Type of data set: ADME, organism-based. As to conditions: in vivo, read-out: Vdss. Also noted: dose 1 mg/kg, route intravenous.

Rho-associated protein kinase 1, sequence (Q13464 whole entry): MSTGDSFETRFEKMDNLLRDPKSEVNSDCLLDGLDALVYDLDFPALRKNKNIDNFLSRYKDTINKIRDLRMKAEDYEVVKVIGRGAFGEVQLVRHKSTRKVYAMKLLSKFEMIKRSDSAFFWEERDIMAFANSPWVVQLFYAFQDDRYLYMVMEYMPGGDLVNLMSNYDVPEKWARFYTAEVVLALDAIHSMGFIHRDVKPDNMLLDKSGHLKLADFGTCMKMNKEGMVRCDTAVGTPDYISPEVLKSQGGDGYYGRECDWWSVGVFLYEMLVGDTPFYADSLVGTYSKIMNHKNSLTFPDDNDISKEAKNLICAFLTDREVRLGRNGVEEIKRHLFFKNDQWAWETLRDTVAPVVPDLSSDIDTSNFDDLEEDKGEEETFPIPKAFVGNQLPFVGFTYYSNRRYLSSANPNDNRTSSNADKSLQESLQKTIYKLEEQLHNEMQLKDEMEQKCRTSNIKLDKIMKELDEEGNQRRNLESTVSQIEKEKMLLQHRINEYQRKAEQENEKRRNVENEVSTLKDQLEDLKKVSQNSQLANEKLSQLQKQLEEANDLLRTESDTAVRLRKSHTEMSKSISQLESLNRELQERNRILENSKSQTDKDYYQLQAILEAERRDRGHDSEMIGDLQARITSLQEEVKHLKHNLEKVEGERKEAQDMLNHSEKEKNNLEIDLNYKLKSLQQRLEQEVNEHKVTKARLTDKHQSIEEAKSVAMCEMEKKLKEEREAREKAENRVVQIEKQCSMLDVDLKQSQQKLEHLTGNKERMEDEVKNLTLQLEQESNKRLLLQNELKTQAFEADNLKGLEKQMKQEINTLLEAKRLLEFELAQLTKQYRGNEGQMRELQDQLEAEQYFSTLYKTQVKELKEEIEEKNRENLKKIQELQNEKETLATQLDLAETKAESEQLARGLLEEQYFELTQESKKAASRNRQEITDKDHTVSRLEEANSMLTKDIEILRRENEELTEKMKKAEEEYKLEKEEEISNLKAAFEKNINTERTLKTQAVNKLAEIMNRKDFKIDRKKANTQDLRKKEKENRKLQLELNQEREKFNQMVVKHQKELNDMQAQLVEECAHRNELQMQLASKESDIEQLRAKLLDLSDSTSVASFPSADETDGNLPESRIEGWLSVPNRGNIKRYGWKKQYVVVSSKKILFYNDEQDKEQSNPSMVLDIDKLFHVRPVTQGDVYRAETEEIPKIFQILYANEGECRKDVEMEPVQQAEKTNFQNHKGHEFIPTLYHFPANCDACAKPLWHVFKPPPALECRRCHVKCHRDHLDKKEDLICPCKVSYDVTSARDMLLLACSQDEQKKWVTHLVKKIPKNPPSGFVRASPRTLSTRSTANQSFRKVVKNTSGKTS

The pIC50 is the IC50 on a negative log10 scale, so that one unit is a factor of ten. Low readings indicate a high IC50, high ones a low IC50. Broadly, the Cmax is the maximum level reached in the sampled fluid or tissue. For orientation: half-life means how long it takes for the measured level to halve. A lower half-life goes with fast loss. The clearance is a measure of how efficiently the substance is removed, as volume per time. A low value points to inefficient removal. Broadly, the bioavailability is dose-corrected exposure relative to a reference, in per cent. Read a high bioavailability as much systemic uptake. Regarding `CCn1c(-c2nonc2N)nc2cnc(Oc3cccc(NC(=O)c4ccc(CN5CCOCC5)cc4)c3)cc21`, the results for the Selectivity ratio in the data set listed under Homo sapiens [1], in the data set filed under Homo sapiens [2] and in the data set filed under Homo sapiens [3] were over 120, over 35 and over 10, respectively. The pIC50 with Aorta is 6.99; in data set [4], at least 9.00. The Cmax in [5] amounted to 1100 ng/mL; in [6], 684 ng/mL. In data set [7], this compound had a half-life of 1.4 h. Also, the clearance in [8] stood at 10.7 mL/min/kg. Also, the Vd in data set [9] came out at 1.1 L/kg. The compound also returned a bioavailability in [10] of 64%.

Consider `CCn1c(-c2nonc2N)nc2cnc(Oc3ccc(NC(C)=O)cc3)cc21`, for which the Selectivity ratio in the data set filed under Homo sapiens [1] was 12; in the data set filed under Homo sapiens [11] it was over 160; in the data set listed under Homo sapiens [12] it was 110; in the data set listed under Homo sapiens [2], 9.7; in the data set listed under Homo sapiens [3], 9.2. For the same compound, the negative logarithm of the IC50 (pIC50) in data set [4] is 7.05.

For the compound `CCn1c(-c2nonc2N)nc2cnc(OC)cc21`, the Selectivity ratio in the data set listed under Homo sapiens [1] was found to be 18; in the data set filed under Homo sapiens [11], 250; in the data set listed under Homo sapiens [12], 55; in the data set filed under Homo sapiens [2], 2.3; in the data set listed under Homo sapiens [3] it was 15. The same compound showed a pIC50 in [4] of 8.36.

Take `CCn1c(-c2nonc2N)nc2cnc(Oc3ccccc3)cc21`: the Selectivity ratio was 10 in the data set listed under Homo sapiens [1]; over 500 in the data set listed under Homo sapiens [11]; over 130 in the data set filed under Homo sapiens [12]; 1.5 in the data set listed under Homo sapiens [2]; 18 in the data set filed under Homo sapiens [3]. In data set [4], the pIC50 was 7.52.

Turning to `CCn1c(-c2nonc2N)nc2cnc(Oc3cccc(N)c3)cc21`, the Selectivity ratio is 8.9 in the data set filed under Homo sapiens [1]; 300 in the data set listed under Homo sapiens [11]; 320 in the data set listed under Homo sapiens [12]; 9.4 in the data set listed under Homo sapiens [2]; 13 in the data set filed under Homo sapiens [3]. In data set [4], this compound gave a pIC50 of 7.74.

On to `CCn1c(-c2nonc2N)nc2cnccc21`, for which the Selectivity ratio was found to be 0.63 in the data set listed under Homo sapiens [1]; 53 in the data set filed under Homo sapiens [11]; 22 in the data set listed under Homo sapiens [12]; 0.18 in the data set filed under Homo sapiens [2]; 3.1 in the data set filed under Homo sapiens [3]. For the same compound, the pIC50 in data set [4] was 7.72.

In the case of `CCn1c(-c2nonc2N)nc2cnc(Oc3cccc(NC(=O)c4ccc(CN(C)C)cc4)c3)cc21`, the Selectivity ratio is over 80 in the data set listed under Homo sapiens [1], over 52 in the data set listed under Homo sapiens [2] and over 3 in the data set filed under Homo sapiens [3]. Also, the pIC50 with Aorta was 7.13; in [4] it was at least 9.00. Also, the Cmax in [13] was found to be 630 ng/mL; in data set [6] it was 160 ng/mL. The half-life in data set [14] was 1.9 h. The compound also had a clearance in data set [15] of 30 mL/min/kg. For the same compound, the Vd in data set [16] was 2.4 L/kg. Also, the bioavailability in data set [10] is 47%.

On to `CCn1c(-c2nonc2N)nc2cnc(Oc3cccc(C(C)=O)c3)cc21`, for which the Selectivity ratio in the data set filed under Homo sapiens [1] is 12; in the data set listed under Homo sapiens [11], over 1000; in the data set listed under Homo sapiens [12], 460; in the data set filed under Homo sapiens [2] it was 12; in the data set filed under Homo sapiens [3], 6.2. This compound had a pIC50 in data set [4] of 7.89.
